# Experiments:
# [1] = biological target: T1, type 2 angiotensin II receptor (AT2) (Bos taurus, UniProt G5E6F7); assay: Interaction with the type 2 angiotensin II receptor (AT2) on membrane fractions of bovine cerebellum, 125I-angiotensin II binding; conditions: bovine cerebellum membranes; 125I-angiotensin II about 0.1 nM; 60 min, 37° C.
# T1 construct: membrane fractions of bovine cerebellum; purchased NEN DuPont NED-001; host or cells: bovine cerebellum membrane fractions
# T1 sequence (G5E6F7 1-362): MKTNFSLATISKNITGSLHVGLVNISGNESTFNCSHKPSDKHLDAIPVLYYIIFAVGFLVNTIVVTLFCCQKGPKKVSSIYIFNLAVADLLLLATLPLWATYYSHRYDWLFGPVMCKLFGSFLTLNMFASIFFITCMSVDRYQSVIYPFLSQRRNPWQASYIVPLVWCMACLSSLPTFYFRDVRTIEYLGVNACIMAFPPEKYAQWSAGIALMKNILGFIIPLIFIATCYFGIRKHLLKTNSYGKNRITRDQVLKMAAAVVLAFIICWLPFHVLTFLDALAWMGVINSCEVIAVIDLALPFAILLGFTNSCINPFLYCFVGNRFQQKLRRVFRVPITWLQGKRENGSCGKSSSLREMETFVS
# Protocol: Interaction of the compounds according to the invention with the type 2 angiotensin II receptor (AT2) on membrane fractions of bovine cerebellum
# For the test, the AT2 receptor "Drug Discovery System" of NEN DuPont (Catalogue No. NED-001) is used. The test is carried out correspondingly using the test protocol additionally supplied. Receptor binding is carried out in a test volume of 235 μl, which in detail contains ^125 I-angiotensin II (about 0.1 nM), Test buffer (PBS, NaCl, EDTA, PMSF, DTT, DMSO) and the substances to be investigated. After an incubation of 60 min at 37° C., the unbound radioactivity of the samples is separated by means of moistened glass fibre filters (Whatman GF/C) and the bound radioactivity is measured […] in a scintillation cocktail after washing the protein with ice-cold buffer solution (0.9% strength NaCl). The analysis of the raw data was carried out using computer programs for the IC50 or Ki value determination (IC50 value: concentration at which the substance to be investigated causes a 50% inhibition of the specific binding of the radioligand: Ki value: IC50 value corrected for the radioactivity used).
# [2] = system: isolated rabbit aorta (contraction induced by angiotensin II); assay: Inhibition of vascular contraction in isolated rabbit aorta rings in vitro, contractions induced by angiotensin II; conditions: based on the 3rd (submaximal) agonist concentration
# Protocol: Rabbits of both sexes are stunned by a blow to the neck and bled out, or in some cases anesthetised with Nembutal (about 60-80 mg/kg i.v.) and sacrificed by opening the thorax. The thorax aorta is taken out, freed from adhering connective tissue, divided into 1.5 mm wide ring segments and individually transferred under an initial loading of about 3.5 g to 10 ml organ baths containing 95% 02 /5% CO2 -aerated Krebs-Henseleit nutrient solution temperature-controlled at 37° C. of the following composition: 119 mmol/l of NaCl: 2.5 mmol/l of CaCl2 ×2 H2 O; 1.2 mmol/l of KH2 PO4; 10 mmol/l of glucose; 4.8 mmol/l of KCl; 1.4 mmol/l of MgSO4 ×7 H2 O and 25 mmol/l of NaHCO3.
# The contractions are measured isometrically by Statham UC2 cells by means of bridge amplifiers (ifd Mulheim or DSM Aalen) and digitalised and analysed by means of A/D converters (System 570, Keithley Munich). Agohist dose response curves (DRC) were plotted hourly. With each DRC, 3 or 4 individual concentrations are applied to the baths at an interval of 4 min. After completion of the DRC and subsequent washing-out cycles (16 times, in each case about 5 sec/min with the abovementioned nutrient solution), a 28-minute resting or incubation phase is added in the course of which the contractions usually reach the starting value again.
# The height of the 3rd DRC in the normal case is used as a reference quantity for the evaluation of the test substance to be investigated in further passages, which is applied to the baths in the following DRCs in increasing dosage in each case at the start of the incubation time. In this way, each aorta ring is always stimulated for the whole day with the same agohist.
# To calculate the IC50 (concentration at which the substance to be investigated causes a 50% inhibition), the effect is in each case based on the 3rd=submaximal agonist concentration.
# [3] = system: smooth muscle cells from rats' aortas; assay: Inhibition of proliferation of smooth muscle cells (3H-thymidine incorporation); type: cell-based; conditions: 10^-6 M, rat aortic smooth muscle cells, 10% FCS
# Protocol: Investigation of the inhibition of proliferation of smooth muscle cells by the compounds according to the invention
# To determine the antiproliferative action of the compounds, smooth muscle cells are used that have been obtained from rats' aortas by the media explant technique [R. Ross, J. Cell. Biol. 50. 172, 1971]. The cells are innoculated into suitable culture dishes (as a rule 96-hole plates, and cultured at 37° C. for 2-3 days in medium containing added serum, 2 mM L-glutamine and 15 mM HEPES, pH 7.4, in 5% CO2. The cells are then synchronised by withdrawal of serum for 2-3 days and then stimulated into growth by serum or other factors. Test desired compounds are added simultaneously. After 16-20 hours, 1 μCi of ^3 H-thymidine is added, and after a further 4 hours, the incorporation of this substance into the TCA-precipitable DNA of the cells is determined.
# [4] = biological target: T2, angiotensin II receptor on membrane fractions of adrenal gland cortex (bovine) (Bos taurus, UniProt P25104); assay: Interaction with the angiotensin II receptor on membrane fractions of adrenal gland cortex (bovine), 3H-angiotensin II binding; conditions: 3H-angiotensin II 3-5 nM, 60 min, room temperature
# T2 construct: partially purified membrane fractions of bovine AGC using radioactive angiotensin II; from tissue; host or cells: bovine adrenal gland cortex, partially purified membrane fractions
# T2 sequence (P25104 1-359): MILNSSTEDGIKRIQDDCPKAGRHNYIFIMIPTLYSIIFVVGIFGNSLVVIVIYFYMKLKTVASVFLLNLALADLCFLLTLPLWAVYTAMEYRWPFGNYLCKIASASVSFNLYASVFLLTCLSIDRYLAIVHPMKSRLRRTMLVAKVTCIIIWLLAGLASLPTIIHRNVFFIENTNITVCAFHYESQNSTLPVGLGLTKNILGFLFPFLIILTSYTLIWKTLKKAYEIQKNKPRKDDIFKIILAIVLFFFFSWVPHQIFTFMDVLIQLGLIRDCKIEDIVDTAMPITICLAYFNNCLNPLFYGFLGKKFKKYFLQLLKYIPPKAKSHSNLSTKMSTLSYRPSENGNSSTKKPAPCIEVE
# Description: Interaction of the compounds according to the invention with the angiotensin II receptor on membrane fractions of adrenal gland cortex (bovine)
# Bovine adrenal gland cortices (AGC) which have been freshly removed and carefully freed from gland medulla are comminuted in sucrose solution (0.32M) with the aid of an Ultra-turrax (Janke & Kunkel, Staufen I. B.) to give a coarse membrane homogenate and are partially purified to give membrane fractions in two centrifugation steps. The receptor binding investigations are carried out on partially purified membrane fractions of bovine AGC using radioactive angiotensin II in an assay volume of 0.25 ml which, in detail, contains the partially purified membranes (50-80 μg) ^3 H-angiotensin II (3-5 nM), test buffer solution (50 mM tris, pH 7.2), 5 mM MgCl2 and the substances to be investigated. After an incubation time of 60 min at room temperature, the unbound radioactivity of the samples is separated by means of moistened glass fibre filters (Whatman GF/C) and the bound radioactivity is measured […] in a scintillation cocktail after washing the protein with ice-cold buffer solution (50 mM tris/HCl, pH 7.4, 5% PEG 6000). […]
structure (smiles),measurement,setting,value
CCCCc1nc(Cl)c(/C=C(\CC2CCCCC2)C(=O)O)n1Cc1ccc(C(C(=O)O)C2CCCC2)cc1 (racemic) [Example 4],Ki,[1],827 nM
same,IC50 against contractions induced by angiotensin II,[2],0.063 µg/mL
"CCCCc1nc(Cl)c(/C=C(\CC2CCCCC2)C(=O)OC)n1Cc1ccc(C(C(=O)N[C@H](CO)c2ccccc2)C2CCCC2)cc1 (stereo partly drawn) [Example 5, (E)-2-[4-{2-n-Butyl-4-chloro-5-(3-cyclohexyl-2-methoxyarbonyl-prop-1-en-yl)-1H-imidazol-1-methyl}phenyl]-2-cyclopentyl-acetic acid L-phenylglycinolamide]",inhibition at 1 µM,[3],90%
"CCCCc1nc(Cl)c(/C=C(\CC2CCCCC2)C(=O)OC)n1Cc1ccc(C(C(=O)NS(=O)(=O)c2ccc(C)cc2)C2CCCC2)cc1 (stereo not shown) [Example 6, (E)-N-4-Toluenesulphonyl-2-[4-{2-n-butyl-4-chloro-5-(3-cyclohexyl-2-methoxycarbonyl-prop-1-en-yl)-1H-imidazol-1-yl-methyl}phenyl]-2-cyclopentyl-acetamide]",Ki,[4],750 nM
CCCCc1nc(Cl)c(/C=C(\CC2CCCCC2)C(=O)O)n1Cc1ccc(C(C(=O)NS(=O)(=O)c2ccc(C)cc2)C2CCCC2)cc1 (stereo not shown) [Example 7],IC50 against contractions induced by angiotensin II,[2],0.051 µg/mL
CCCCc1nc(Cl)c(/C=C(\CC2CCCCC2)C(=O)O)n1Cc1ccc(C(C(=O)N[C@H](CO)c2ccccc2)C2CCCC2)cc1 (stereo partly shown) [Example 8],Ki,[4],80 nM
CCCCc1nc(Cl)c(/C=C(\CC2CCCCC2)C(=O)O)n1Cc1ccc(C(C(=O)O)C2CCCCCC2)cc1 (stereo not shown) [Example 12],IC50 against contractions induced by angiotensin II,[2],0.046 µg/mL
